{
  "source": "patent US20220296628A1",
  "about": "“RNA COMBINATIONS AND COMPOSITIONS WITH DECREASED IMMUNOSTIMULATORY PROPERTIES” (CureVac AG, priority 2019, published 2022)",
  "key": {"human PBMCs": {"test_system": "human PBMCs", "experiment": "PBMC co-transfection of PpLuc mRNA and antagonists (Table 6), luciferase activity in cell lysate", "type": "cell-based", "conditions": "24 hours post transfection, DOTAP, antagonist 20% weight, compared to PpLuc mRNA without admixture (FIG. 5B)", "method": "The preparation of human PBMCs was performed according to example 2.1. For transfection experiments 2×10^5 human PBMCs per well were seeded into each well of a 96-well plate in X-Vivo 15 medium (Lonza). For preparation of DOTAP (vehicle) complexes containing both the antagonist (either 2-O-methylated oligonucleotide variants, RNA oligonucleotides, DNA oligonucleotides or small molecules) as well as PpLuc mRNA (SEQ ID NO: 82, same RNA design as shown in table 2), the antagonist was first added to PpLuc mRNA at a weight percentage of 20% (1:5 mRNA: oligo/small molecule). The molar ratio of PpLuc mRNA to antagonist was thus 1:45 (MW (Oligonucleotide)=2907 g/mol, MW (PpLuc mRNA)=652377 g/mol). DOTAP complexes containing PpLuc mRNA and antagonist were formed at a ratio of 5 μl of DOTAP per 1 μg of mRNA and 100 ng were transfected. […] To quantify background stimulation, PBMC were incubated either with DOTAP alone (“vehicle”) or RPMI (“medium”) only. […] Expression analysis was performed by measuring the luciferase activity, which is measured as relative light units (RLU) in a BioTek SynergyHT plate reader. PpLuc activity is measured at 5 seconds measuring time using 50 μl of lysate and 200 μl of luciferin buffer (75 μM luciferin, 25 mM Glycylglycin, pH 7.8 (NaOH), 15 mM MgSO4, 2 mM ATP)."}, "mice (strain 129SV) [1]": {"test_system": "mice (strain 129SV)", "experiment": "Serum cytokines by CBA 6 hours post LNP injection", "type": "in vivo, mouse", "conditions": "6 hours post i.v. LNP injection, in a dose-dependent manner (oligo 20% or 6.7% mass), compared to PpLuc mRNA only (FIG. 4A)", "method": "In supernatants collected from PBMC stimulated without or with 2-O-methylated oligonucleotide, the concentrations of IFN-α, IFN-γ, TNF, were measured by Cytometric Bead Array (CBA) according to the manufacturer's instructions (BD Biosciences) using the following kits: Human Soluble Protein Master Buffer Kit (catalog no. 558264), Assay Diluent (catalog no. 560104), Human IFN-α Flex Set (catalog no. 560379), Human IFN-γ Flex Set (catalog no. 558269), Human TNF Flex Set (catalog no. 560112); all kits from BD Biosciences. The data was analyzed using the FCAP Array v3.0 software (BD Biosciences). For preparation of Lipid nanoparticles (LNP) containing both PpLuc mRNA and 2-O-methylated oligonucleotide, first the 2′-O-methylated oligonucleotide was added to PpLuc mRNA at a weight percentage of either 20% or 6.7% (see Table 3). LNP containing PpLuc mRNA either with or without admixture of 2-O-methylated oligonucleotide were prepared using cationic lipid, cholesterol, PEG-lipid and a neutral lipid. The mRNA was diluted to 1 g/L in citrate buffer, pH 4. The ethanolic lipid solution was mixed with the aqueous RNA solution at a ratio of 1:3 (vol/vol) using a Nanoassemblr (PrecisionNanoSystems). The ethanol was then removed and the buffer replaced by 10 mM HEPES, pH 7.4 comprising 9% Sucrose by dialysis. Finally, the LNP-formulated RNA was adjusted to 0.2 g/L. For in vivo experiments, 8 weeks old female mice (around 25 g, strain 129SV) were injected with the various LNP formulations (see tables 4 and 5). 4 animals were used per group. 10 μg or 30 μg of mRNA formulated with or without 2′-O-methylated oligonucleotide were intravenously injected at a concentration of 0.2 g/l. Bioluminescence imaging was performed 6 hours and 24 hours post LNP injection. Blood was sampled 6 hours post LNP injection and terminally 24 hours post LNP injection. Immediately thereafter, mice were sacrificed, livers collected and placed in 1.5 ml PP tubes, frozen and stored until analysis (<−70° C.). To analyse the influence of the 2′-O-methylated oligonucleotide on immunostimulation, the concentrations of IFNγ, TNFα, IL-6, MIP-1β, RANTES, and MCP1 were measured in sera from blood collected 6 hours post LNP injection by Cytometric Bead Array (CBA), performed as described in paragraph 2.3. […] To further assess the influence of the 2′-O-methylated oligonucleotide on immunostimulation, the concentration of IFNα was measured in sera from blood collected 24 hours post LNP injection by ELISA."}, "mice (strain 129SV) [2]": {"test_system": "mice (strain 129SV)", "experiment": "In vivo bioluminescence imaging of PpLuc expression after i.v. injection of LNP-formulated PpLuc mRNA with or without oligonucleotide", "set-up": "species or system mouse", "conditions": "24 hours post single i.v. injection, 10 μg or 30 μg of mRNA (either dose), oligo 20% or 6.7% mass, compared to PpLuc mRNA without Gm18 (FIG. 2)", "method": "For preparation of Lipid nanoparticles (LNP) containing both PpLuc mRNA and 2-O-methylated oligonucleotide, first the 2′-O-methylated oligonucleotide was added to PpLuc mRNA at a weight percentage of either 20% or 6.7% (see Table 3). LNP containing PpLuc mRNA either with or without admixture of 2-O-methylated oligonucleotide were prepared using cationic lipid, cholesterol, PEG-lipid and a neutral lipid. The mRNA was diluted to 1 g/L in citrate buffer, pH 4. The ethanolic lipid solution was mixed with the aqueous RNA solution at a ratio of 1:3 (vol/vol) using a Nanoassemblr (PrecisionNanoSystems). The ethanol was then removed and the buffer replaced by 10 mM HEPES, pH 7.4 comprising 9% Sucrose by dialysis. Finally, the LNP-formulated RNA was adjusted to 0.2 g/L. For in vivo experiments, 8 weeks old female mice (around 25 g, strain 129SV) were injected with the various LNP formulations (see tables 4 and 5). 4 animals were used per group. 10 μg or 30 μg of mRNA formulated with or without 2′-O-methylated oligonucleotide were intravenously injected at a concentration of 0.2 g/l. Bioluminescence imaging was performed 6 hours and 24 hours post LNP injection. […] PpLuc expression was quantified from bioluminescence images recorded for 3 minutes starting 5 minutes after i.v. injection of 3 mg of luciferin (see Table 5)."}},
  "data": [
    {"substance": "5′-GAG CGmG CCA-3′ (GAGCNGCCA; 2'-O-methyl guanosine at position 5; 9mer oligonucleotide; modified_base (5)..(5) n can be any nucleotide, wherein the nucleotide is 2-O-methylated, preferably a 2-O-methylated guanosine) [Gm18, 9-mer 2′-O-methylated RNA oligonucleotide; position 5 is 2′-O-methylated guanosine (Gm); antagonist of TLR7 and 8]", "values": [
      {"measurement": "expression of PpLuc in PBMCs", "setting": "human PBMCs", "result": "increases the expression"},
      {"measurement": "release of IFNγ in sera", "setting": "mice (strain 129SV) [1]", "result": "strongly decreases the release"},
      {"measurement": "release of IL-6 in sera", "setting": "mice (strain 129SV) [1]", "result": "strongly decreases the release"},
      {"measurement": "release of MCP1 in sera", "setting": "mice (strain 129SV) [1]", "result": "strongly decreases the release"},
      {"measurement": "release of MIP-1β in sera", "setting": "mice (strain 129SV) [1]", "result": "strongly decreases the release"},
      {"measurement": "release of RANTES in sera", "setting": "mice (strain 129SV) [1]", "result": "strongly decreases the release"},
      {"measurement": "release of TNFα in sera", "setting": "mice (strain 129SV) [1]", "result": "strongly decreases the release"},
      {"measurement": "expression of PpLuc (bioluminescence imaging)", "setting": "mice (strain 129SV) [2]", "result": "increases the expression"}
    ]}
  ]
}
